Source: ChEMBL document CHEMBL4152321, “Synthesis and antiplasmodial activity of glyco-conjugate hybrids of phenylhydrazono-indolinones and glycosylated 1,2,3-triazolyl-methyl-indoline-2,3-diones” (Eur J Med Chem, 2018)

Columns and labels:
[1] = system: Plasmodium falciparum; assay: Antiplasmodial activity against chloroquine-sensitive Plasmodium falciparum 3D7 infected in human erythrocytes after 72 hrs by SYBR Green 1 staining based fluorescence assay; format: functional, organism-based; conditions: 3D7, 72 h
[2] = Selectivity index, ratio of CC50 for African green monkey Vero cells to IC50 for chloroquine-sensitive Plasmodium falciparum 3D7 infected in human erythrocytes; format: toxicity, cell-based; conditions: read-out: Ratio CC50/IC50
[3] = system: Plasmodium falciparum; assay: Antiplasmodial activity against chloroquine-resistant Plasmodium falciparum K1 infected in human erythrocytes after 72 hrs by SYBR Green 1 staining based fluorescence assay; format: functional, organism-based; conditions: K1, 72 h
[4] = Selectivity index, ratio of CC50 for African green monkey Vero cells to IC50 for chloroquine-resistant Plasmodium falciparum K1 infected in human erythrocytes; format: toxicity, cell-based; conditions: read-out: Ratio CC50/IC50
[5] = Cytotoxicity against African green monkey Vero cells after 3 days by resazurin dye based fluorescence assay; format: cell-based; conditions: chlorocebus sabaeus

Row | Compound | IC50 [1] [µM] | selectivity ratio [2] | IC50 [3] [µM] | selectivity ratio [4] | CC50 at 72 h [5] [µM]
1 | CC1(C)O[C@H]2O[C@H](Cn3cc(CN4C(=O)/C(=N\Nc5ccc(C#N)cc5)c5ccccc54)nn3)[C@H](O)[C@H]2O1 | 4.79 | 21.8 | 3.4 | 30.8 | 105
2 | CC(=O)C[C@H]1O[C@@H](On2cc(CN3C(=O)/C(=N\Nc4ccc(F)cc4)c4ccccc43)nn2)[C@H](OC(C)=O)[C@@H](OC(C)=O)[C@H]1OC(C)=O | 2.44 | 32.2 | 3 | 26.2 | 78.6
3 | CC1(C)O[C@H]2[C@@H](O1)[C@@H](Cn1cc(CN3C(=O)/C(=N\Nc4ccc(Br)cc4)c4ccccc43)nn1)O[C@@H]1OC(C)(C)O[C@@H]12 | 1.96 | 60.7 | 1.61 | 73.9 | 119
4 | CC1(C)O[C@H]2[C@@H](O1)[C@@H](Cn1cc(CN3C(=O)/C(=N\Nc4cccc(Cl)c4)c4ccccc43)nn1)O[C@@H]1OC(C)(C)O[C@@H]12 | 3.23 | 36.2 | 2.49 | 47 | 117
5 | O=C1/C(=N\Nc2cccc(Cl)c2)c2ccccc2N1Cc1cn(O[C@@H]2O[C@H](CO)[C@@H](O)[C@H](O)[C@H]2O)nn1 | 6.73 |  | 7.62 |  | 
6 | CC(=O)C[C@H]1O[C@@H](On2cc(CN3C(=O)/C(=N\Nc4cccc(Cl)c4)c4ccccc43)nn2)[C@H](OC(C)=O)[C@@H](OC(C)=O)[C@H]1OC(C)=O | 2.47 | 35.6 | 1.93 | 45.5 | 87.9
7 | COc1ccc(N/N=C2\C(=O)N(Cc3cn(C[C@H]4O[C@@H]5OC(C)(C)O[C@@H]5[C@H]5OC(C)(C)O[C@H]54)nn3)c3ccccc32)cc1 | 1.64 | 64.2 | 2.29 | 46 | 105
8 | COc1ccc(N/N=C2\C(=O)N(Cc3cn(O[C@@H]4O[C@H](CO)[C@@H](O)[C@H](O)[C@H]4O)nn3)c3ccccc32)cc1 | 3.27 | 24.4 | 4.89 | 16.3 | 79.6
9 | CC(=O)C[C@H]1O[C@@H](On2cc(CN3C(=O)/C(=N\Nc4ccc(F)cc4)c4ccccc43)nn2)[C@H](OC(C)=O)[C@@H](OC(C)=O)[C@@H]1OC(C)=O | 2.25 | 30.5 | 3.8 | 18.1 | 68.7
10 | CC(=O)C[C@H]1O[C@@H](On2cc(CN3C(=O)/C(=N\Nc4ccccc4)c4ccccc43)nn2)[C@H](OC(C)=O)[C@@H](OC(C)=O)[C@@H]1OC(C)=O | 3.73 | 28.9 | 7.11 | 15.1 | 108
11 | CC(=O)C[C@H]1O[C@@H](On2cc(CN3C(=O)/C(=N\Nc4ccccc4)c4ccccc43)nn2)[C@H](OC(C)=O)[C@@H](OC(C)=O)[C@H]1OC(C)=O | 3.5 | 18.6 | 4.13 | 15.8 | 65.2
12 | O=C1/C(=N\Nc2ccc(Br)cc2)c2ccccc2N1Cc1cn(O[C@@H]2O[C@H](CO)[C@H](O)[C@H](O)[C@H]2O)nn1 | 3.59 | 25.8 | 4.68 | 19.5 | 91.5
13 | COc1ccc(N/N=C2\C(=O)N(Cc3cn(O[C@@H]4O[C@H](CC(C)=O)[C@@H](OC(C)=O)[C@H](OC(C)=O)[C@H]4OC(C)=O)nn3)c3ccccc32)cc1 | 3.05 | 31.2 | 4.13 | 23.1 | 95.3
14 | CC1(C)O[C@H]2O[C@H](Cn3cc(CN4C(=O)C(=O)c5ccccc54)nn3)[C@H](O)[C@H]2O1 | 4.33 | > 46.2 | 3.4 | > 58.8 | > 200
15 | O=C1/C(=N\Nc2cccc(Cl)c2)c2ccccc2N1Cc1cn(O[C@@H]2O[C@H](CO)[C@H](O)[C@H](O)[C@H]2O)nn1 | 6.74 | 12.5 | 2.62 | 32.2 | 84.5
16 | CC1(C)O[C@H]2O[C@H](Cn3cc(CN4C(=O)/C(=N\Nc5ccc(F)cc5)c5ccccc54)nn3)[C@H](O)[C@H]2O1 | 3.08 | 21.2 | 3.99 | 21 | 83.8

Row | Compound | IC50 [1] [µM] | selectivity ratio [2] | IC50 [3] [µM] | selectivity ratio [4] | CC50 at 72 h [5] [µM]
17 | CC1(C)O[C@H]2[C@@H](O1)[C@@H](Cn1cc(CN3C(=O)/C(=N\Nc4ccc(F)cc4)c4ccccc43)nn1)O[C@@H]1OC(C)(C)O[C@@H]12 | 3.07 | 39.9 | 2.64 | 46.4 | 122
18 | O=C1/C(=N\Nc2ccccc2)c2ccccc2N1Cc1cn(O[C@@H]2O[C@H](CO)[C@H](O)[C@H](O)[C@H]2O)nn1 | 4.8 | 17.4 | 8.68 | 9.6 | 83.4
19 | N#Cc1ccc(N/N=C2\C(=O)N(Cc3cn(O[C@@H]4O[C@H](CO)[C@H](O)[C@H](O)[C@H]4O)nn3)c3ccccc32)cc1 | 7.65 | 12.2 | 3.3 | 28.4 | 93.7
20 | N#Cc1ccc(N/N=C2\C(=O)N(Cc3cn(O[C@@H]4O[C@H](CO)[C@@H](O)[C@H](O)[C@H]4O)nn3)c3ccccc32)cc1 | 7.78 |  | 7.01 |  | 
21 | CC1(C)O[C@H]2O[C@H](Cn3cc(CN4C(=O)/C(=N\Nc5ccccc5)c5ccccc54)nn3)[C@H](O)[C@H]2O1 | 4.67 | 17.6 | 4.66 | 17.6 | 82.1
22 | O=C1/C(=N\Nc2ccc(Br)cc2)c2ccccc2N1Cc1cn(O[C@@H]2O[C@H](CO)[C@@H](O)[C@H](O)[C@H]2O)nn1 | 9.34 |  | 7.95 |  | 
23 | COc1ccc(N/N=C2\C(=O)N(Cc3cn(C[C@H]4O[C@@H]5OC(C)(C)O[C@@H]5[C@H]4O)nn3)c3ccccc32)cc1 | 3.8 | 19.6 | 3.28 | 22.7 | 74.5
24 | COc1ccc(N/N=C2\C(=O)N(Cc3cn(O[C@@H]4O[C@H](CC(C)=O)[C@H](OC(C)=O)[C@H](OC(C)=O)[C@H]4OC(C)=O)nn3)c3ccccc32)cc1 | 1.27 | 49.2 | 3.12 | 20 | 62.5
25 | CC(=O)C[C@H]1O[C@@H](On2cc(CN3C(=O)/C(=N\Nc4cccc(Cl)c4)c4ccccc43)nn2)[C@H](OC(C)=O)[C@@H](OC(C)=O)[C@@H]1OC(C)=O | 3.96 | 29.4 | 8.67 | 13.4 | 117
26 | CC1(C)O[C@H]2[C@@H](O1)[C@@H](Cn1cc(CN3C(=O)/C(=N\Nc4ccccc4)c4ccccc43)nn1)O[C@@H]1OC(C)(C)O[C@@H]12 | 3.87 | 27.2 | 2.62 | 40.2 | 105
27 | CCN(CC)CCCC(C)Nc1ccnc2cc(Cl)ccc12 (configuration not stated) [CHLOROQUINE] |  |  |  |  | > 500
28 | CC1(C)O[C@H]2[C@@H](O1)[C@@H](Cn1cc(CN3C(=O)/C(=N\Nc4ccc(C#N)cc4)c4ccccc43)nn1)O[C@@H]1OC(C)(C)O[C@@H]12 | 3.59 | 34.9 | 2.77 |  | 126
29 | CC(=O)C[C@H]1O[C@@H](On2cc(CN3C(=O)C(=O)c4ccccc43)nn2)[C@H](OC(C)=O)[C@@H](OC(C)=O)[C@H]1OC(C)=O | 8.4 |  | 8.07 |  | 
30 | CC1(C)O[C@H]2[C@@H](O1)[C@@H](Cn1cc(CN3C(=O)C(=O)c4ccccc43)nn1)O[C@@H]1OC(C)(C)O[C@@H]12 | 8.41 |  | 7.51 |  | 
31 | O=C1/C(=N\Nc2ccc(F)cc2)c2ccccc2N1Cc1cn(O[C@@H]2O[C@H](CO)[C@@H](O)[C@H](O)[C@H]2O)nn1 | 8 |  | 8.53 |  | 
